Experiments:
[1] = tested on: mice with chronic constriction nerve injury (CCI); assay: Paw withdrawal threshold (von Frey filaments) in CCI mice; type: in vivo
Description: The materials used were (as also indicated in FIGS. 1 and 2): • Vehicle: 0.5% hydroxy-propyl-methyl-cellulose (HPMC) in water, 5 ml/kg, p.o.; • 50 mg/kg, 100 mg/kg, 150 mg/kg and 200 mg/kg: ESL at 50, 100, 150 and 200 mg/kg, p.o.; • GP 100 mg/kg: gabapentin 100 mg/kg, p.o.
The potential analgesic effects of orally dosed ESL was investigated at doses of 50, 100, 150 and 200 mg/kg, on the paw withdrawal threshold (PWT) and these effects compared with those of the dose vehicle and gabapentin, the latter at 100 mg/kg, in a mouse model of chronic constriction nerve injury (CCI).
Each animal received a single oral dose of either ESL (50, 100, 150, or 200 mg/kg), or gabapentin (100 mg/kg in saline) or vehicle (5 ml/kg). Behavioural testing was then performed twice, at approximately 60 and 120 minutes post-dose, to investigate the effect of treatments.

[2] = tested on: Mice (NMRI); assay: Formalin paw test; type: in vivo; conditions: 300 mg/kg p.o.
Description: The method, which detects analgesic activity, follows that described by Wheeler-Aceto et al (see […]-ACETO, H. & A., C. (1991), “Standardization of the rat paw formalin test for the evaluation of analgesics”, Psychopharmacology, 104, 35-44). Mice (NMRI) were given an intraplantar injection of 5% formalin (25 μl) into the posterior left paw. […] The time spent licking was counted for 15 minutes, beginning 15 minutes after injection of formalin. 10 mice were studied per group. The test was performed blind. ESL and carbamazepine (CBZ) were tested at the doses of 10, 30, 100 and 300 mg/kg p.o., and oxcarbazepine (OXC) and R-Lic were tested at the doses of 100 and 300 mg/kg p.o., administered 60 minutes before the test (i.e. 45 minutes before formalin), and compared with a vehicle control group in each experiment. Morphine (64 mg/kg p.o.), administered under the same experimental conditions, was used as reference substance.

[3] = tested on: patients with partial epilepsy; assay: MADRS, open label extension of phase 3 study, Trial 2; type: in vivo, human
Description: During a further open label extension of a phase 3 study with ESL, the effect on depressive symptoms in patients taking at least one other anti-epileptic drug was assessed using the Montgomery Åsberg Depression Rating Scale (MADRS) at the end of treatment (after one year or after early discontinuation) and results compared with those at baseline. Patients were treated with ESL dosages in the range of 400-1500 mg, the majority being treated once daily with 800 mg ESL.

## CC(=O)O[C@H]1Cc2ccccc2N(C(N)=O)c2ccccc21 [ESL, S-(−)-10-acetoxy-10,11-dihydro-5H-dibenz/b,f/azepine-5-carboxamide]
[1]; 50 mg/kg group on 14th to 16th day, P<0.05
  PWT in the contralateral limbs vs vehicle group: significantly higher
[1]; CCI mice, PWT
  potency and efficacy compared with reference compound: potency and efficacy similar to the reference compound, gabapentin
[1]; ESL 50, 100, 150, 200 mg/kg p.o., single dose, tested about 60 and 120 min post-dose
  PWT in the ipsilateral hindpaw: dose-dependently increased the PWT
[1]; ESL 50-200 mg/kg p.o., vs vehicle
  PWT in the contralateral side: did not significantly affect the PWT
[1]; ESL p.o., ipsilateral hindpaw
  duration of the effect on PWT after dosing: more than 2 hours
[2]
  licking in the formalin test at 300 mg/kg: abolished licking
[3]; ITT population (264 patients)
  MADRS apparent sadness, mean relative improvement: 34%
  MADRS concentration difficulties, mean relative improvement: 30%
  MADRS inability to feel, mean relative improvement: 38%
  MADRS inner tension, mean relative improvement: 31%
  MADRS lassitude, mean relative improvement: 38%
  MADRS pessimistic thoughts, mean relative improvement: 26%
  MADRS reduced appetite, mean relative improvement: 57%
  MADRS reduced sleep, mean relative improvement: 48%
  MADRS reported sadness, mean relative improvement: 40%
  MADRS suicidal thoughts, mean relative improvement: 56%
[3]; PP population (232 patients)
  MADRS apparent sadness, mean relative improvement: 38%
  MADRS concentration difficulties, mean relative improvement: 33%
  MADRS inability to feel, mean relative improvement: 35%
  MADRS inner tension, mean relative improvement: 34%
  MADRS lassitude, mean relative improvement: 39%
  MADRS pessimistic thoughts, mean relative improvement: 31%
  MADRS reduced appetite, mean relative improvement: 62%
  MADRS reduced sleep, mean relative improvement: 53%
  MADRS reported sadness, mean relative improvement: 41%
  MADRS suicidal thoughts, mean relative improvement: 60%
[3]; long-term open-label adjunctive therapy, partial epilepsy
  depressive mood as assessed by MADRS, change from baseline: statistically significant improvement from baseline

From US9855277B2, “Use of 5H-dibenz/b,f/azepine-5-carboxamide derivatives for treating fibromyalgia” (BIAL—PORTELA & CA, S.A., priority 2009, dated 2018)
